# Measured values published in US20070154906A1, “Methods to identify therapeutic candidates” (Spirogen Ltd., priority 2005, published 2007).
# Key:
# [1] = tested on: MS2 DNA fragment (MS2F and MS2R); assay: DNase I footprinting on MS2 DNA fragment; assay type: binding; conditions: for footprint shape at position H (footnote 1) / footprint shape at position J (footnote 2): MS2 DNA fragment; for footprint shape at position H (footnote 1): site H; for footprint shape at position J (footnote 2): site J
# Experimental: The sequence selectivity of the six PBD-pyrrole conjugates (GWL 77, GWL 78, GWL 79, GWL 80, GWL 81 and GWL 82) was evaluated by standard DNA footprinting on a fragment of MS2 as follows, in accordance with the technique described in Martin, Biochemistry (2005) 44:4135-4147.
# The vast majority of footprint sites are common features in the binding profiles of all six conjugates, with only a small number of sites being footprinted by a subset of the family. Even more unexpectedly, no site is footprinted by only one molecule (in fact, the fewest number of conjugates that bind at any single site is four). The differential cleavage plot in FIG. 5 provides footprinting profiles at a supramaximal concentration color-coded for each conjugate which illustrates a striking degree of overlap. Although there is no conspicuous change in footprinting patterns as the number of pyrroles units in each conjugate increases, there are changes in two other features, namely, the apparent binding affinity and the width of the footprinted site. […] To simplify comparison between molecules, only the most significant footprint site (5′-^62[…]^70−3′/3′-[…]-5′) (SEQ ID NO:24) was selected for comparison. When the binding affinity of each molecule is compared to the relative number of pyrrole units it contains, a parabolic relationship is observed. By this method, GWL 80 (four pyrroles) appears to be the strongest binder with a DNase IC50 of around 30 nM. Conjugate GWL 79 (three pyrroles) and GWL 81 (five pyrroles) follow closely with affinities in the region of 30-100 nM. […] Finally, GWL 77 (one pyrrole) is a particularly weak footprinting molecule with an DNase IC50 of about, or in excess of, 10 μM.
# [2] = tested on: MCF-7 human mammary cells; assay: Cellular uptake and nuclear incorporation, confocal microscopy; assay type: cell-based; conditions: for nuclear uptake: 200 μM over 24 hour; for time to cellular uptake / detection: MCF-7 cells; for nuclear fluorescence: highest drug concentrations, exposure time 24 hour
# Experimental: Cellular uptake and nuclear incorporation of drug into MCF-7 human mammary cells was visualized using confocal microscopy. Conjugates GWL 77, GWL78, GWL 79, GWL 80 and GWL 81 were prepared in DMSO at 20 mM and diluted in RPMI to the appropriate concentration. Freshly harvested MCF7 cells at 5×10^4 cells/ml were placed in 200 μl of complete RPMI1640 (containing 10% FCS) into the wells of 8-well chambered cover-glasses. Cells were left overnight to adhere at 37° C. […] At 1, 5 and 24 hours after addition of conjugates, the cells were examined using a Nikon TE2000 with UV filter set and viewed under oil immersion with the x63 objective lens.
# [3] = tested on: K562 human chronic myeloid leukemia cells; assay: In vitro cytotoxicity assay (MTT); assay type: cell-based; conditions: K562, one hour exposure, MTT after four days
# Experimental: In one aspect of this test, K562 human chronic myeloid leukemia cells are maintained in RPMI1640 medium supplemented with 10% fetal calf serum and 2 mM glutamine at 37° C. in a humidified atmosphere containing 5% CO2 and are incubated with a specified dose of drug for one hour at 37° C. in the dark. The incubation is terminated by centrifugation (5 min, 300 g) and the cells are washed once with drug-free medium. Following the appropriate drug treatment, the cells are transferred to 96-well microtiter plates (10^4 cells per well, 8 wells per sample). Plates are then kept in the dark at 37° C. in a humidified atmosphere containing 5% CO2. The assay is based on the ability of viable cells to reduce a yellow soluble tetrazolium salt, 3-(4,5-dimethylthiazol-2-yl)-2,5-diphenyl-2H-tetrazolium bromide (MTT, Aldrich-Sigma), to an insoluble purple formazan precipitate. Following incubation of the plates for four days (to allow control cells to increase in number by approximately 10 fold), 20 μL of MTT solution (5 mg/ml in phosphate-buffered saline) is added to each well and the plates further incubated for five hours. […] The optical density is then read at a wavelength of 550 nm on a […]™ (Titertek Labsystems, Finland) ELISA plate reader, and a dose-response curve is constructed. […]
# [4] = differential cleavage analysis, compared with GWL 79
Structure (SMILES),apparent binding affinity relative to GWL 79 ([1]; C11 versus GWL 79),"binding at positions K and L [1, 4]","footprints at positions D, M and G [1, 4]",nuclear uptake [2],time to cellular uptake / detection [2],nuclear fluorescence [2],footprint at position G ([1]; differential cleavage analysis),footprint shape at position H (footnote 1) [1],footprint shape at position J (footnote 2) [1],IC50 [3],"IC50 ([1]; read-out: DNase IC50 (concentration of conjugate providing 50% inhibition of DNase I-mediated cleavage), site 5'-62CAATACACA70-3', estimated by eye from footprint images)"
"COC(=O)c1cc(NC(=O)c2cc(NC(=O)c3cc(NC(=O)CCOc4cc5c(cc4OC)C(=O)N4CCC[C@H]4C=N5)cn3C)cn2C)cn1C [C11, reference compound]",30-100 fold,much weaker binding,lack of footprints,–,–,–,–,–,–,–,–
"COC(=O)c1cc(NC(=O)c2cc(NC(=O)c3cc(NC(=O)CCCOc4cc5c(cc4OC)C(=O)N4CCC[C@H]4C=N5)cn3C)cn2C)cn1C [GWL 79, (11aS) methyl 4-{[4-({4-[4-(7-methoxy-5-oxo-2,3,5,11a-tetrahydro-5H-pyrrolo[2,1-c][1,4]benzodiazepine-8-yloxy)-butyrylamino]-1-methyl-1H-pyrrole-2-carbonyl]-amino)-1-methyl-1H-pyrrole-2-carbonyl]-amino}-1-methyl-1H-pyrrole-2-carboxylate]",–,–,–,clear nuclear uptake,3 h,strong nuclear fluorescence,–,–,–,–,–
"COC(=O)c1cc(NC(=O)c2cc(NC(=O)CCCOc3cc4c(cc3OC)C(=O)N3CCC[C@H]3C=N4)cn2C)cn1C [GWL 78, (11aS) methyl 4-({4-[4-(7-methoxy-5-oxo-2,3,5,11a-tetrahydro-5H-pyrrolo[2,1-c][1,4]benzodiazepine-8-yloxy)-butyrylamino]-1-methyl-1H-pyrrole-2-carbonyl}-amino)-1-methyl-1H-pyrrole-2-carboxylate]",–,–,–,clear nuclear uptake,3 h,strong nuclear fluorescence,footprinted,–,–,–,–
"COC(=O)c1cc(NC(=O)c2cc(NC(=O)c3cc(NC(=O)c4cc(NC(=O)CCCOc5cc6c(cc5OC)C(=O)N5CCC[C@H]5C=N6)cn4C)cn3C)cn2C)cn1C [GWL 80, (11aS) methyl 4-[(4-{[4-({4-[4-(7-methoxy-5-oxo-2,3,5,11a-tetrahydro-5H-pyrrolo[2,1-c][1,4]benzodiazepine-8-yloxy)-butyrylamino]-1-methyl-1H-pyrrole-2-carbonyl]-amino)-1-methyl-1H-pyrrole-2-carbonyl]-amino}-1-methyl-1H-pyrrole-2-carbonyl)-amino]-1-methyl-1H-pyrrole-2-carboxylate]",–,–,–,–,–,more diffuse throughout the cell,footprinted,"^127, 29, 31 show evidence of two closely juxtaposed footprints at this position","^227, 29, 31 show evidence of two closely juxtaposed footprints at this position",–,–
"COC(=O)c1cc(NC(=O)c2cc(NC(=O)c3cc(NC(=O)c4cc(NC(=O)c5cc(NC(=O)c6cc(NC(=O)CCCOc7cc8c(cc7OC)C(=O)N7CCC[C@H]7C=N8)cn6C)cn5C)cn4C)cn3C)cn2C)cn1C [GWL 82, (11aS) methyl 4-{[4-({4-[(4-{[4-({4-[4-(7-methoxy-5-oxo-2,3,5,11a-tetrahydro-5H-pyrrolo[2,1-c][1,4]benzodiazepine-8-yloxy)-butyrylamino]-1-methyl-1H-pyrrole-2-carbonyl]-amino)-1-methyl-1H-pyrrole-2-carbonyl]-amino}-1-methyl-1H-pyrrole-2-carbonyl)-amino]-1-methyl-1H-pyrrole-2-carbonyl}-amino)-1-methyl-1H-pyrrole-2-carbonyl]-amino}-1-methyl-1H-pyrrole-2-carboxylate]",–,–,–,–,–,more diffuse throughout the cell,–,"^127, 29, 31 show evidence of two closely juxtaposed footprints at this position","^227, 29, 31 show evidence of two closely juxtaposed footprints at this position",32 nM,–
"COC(=O)c1cc(NC(=O)CCCOc2cc3c(cc2OC)C(=O)N2CCC[C@H]2C=N3)cn1C [GWL 77, (11aS) methyl 4-[4-(7-methoxy-5-oxo-2,3,5,11a-tetrahydro-5H-pyrrolo[2,1-c][1,4]benzodiazepine-8-yloxy)-butyrylamino]-1-methyl-1H-pyrrole-2-carboxylate]",–,–,–,clear nuclear uptake,< 1 h,strong nuclear fluorescence,footprinted,–,–,51 nM,≥ 10 µM
"COC(=O)c1cc(NC(=O)c2cc(NC(=O)c3cc(NC(=O)c4cc(NC(=O)c5cc(NC(=O)CCCOc6cc7c(cc6OC)C(=O)N6CCC[C@H]6C=N7)cn5C)cn4C)cn3C)cn2C)cn1C [GWL 81, (11aS) methyl 4-({4-[(4-{[4-({4-[4-(7-methoxy-5-oxo-2,3,5,11a-tetrahydro-5H-pyrrolo[2,1-c][1,4]benzodiazepine-8-yloxy)-butyrylamino]-1-methyl-1H-pyrrole-2-carbonyl]-amino)-1-methyl-1H-pyrrole-2-carbonyl]-amino}-1-methyl-1H-pyrrole-2-carbonyl)-amino]-1-methyl-1H-pyrrole-2-carbonyl}-amino)-1-methyl-1H-pyrrole-2-carboxylate]",–,–,–,–,–,more diffuse throughout the cell,footprinted,"^127, 29, 31 show evidence of two closely juxtaposed footprints at this position","^227, 29, 31 show evidence of two closely juxtaposed footprints at this position",–,–
